The values below come from patent US4728726A, “GRF analogs IIIb” (The Salk Institute for Biological Studies, priority 1986, dated 1988).

This test deals with cells of rat pituitary glands. Description: in vitro assay of growth hormone release from cultured rat pituitary cells (ir GH by radioimmunoassay). The note with it: potency for GH release relative to standard hGRF(1-40)-OH = 100%; equimolar concentrations; incubation 3 to 4 hours. It counts as cell-based. The procedure: To determine the relative effectiveness of certain representative synthetic peptides to promote the release of growth hormone, in vitro assays are carried out using synthetic hpGRF(1-40)-OH as a standard in side-by-side comparison with equimolar concentrations of the representative analogs which have been synthesized. Cultures are used which include cells of rat pituitary glands removed some three to five days previously. Such cultures are considered optimal for the secretion of growth hormone and are used for the comparative testing, in the general manner described in Vale et al. Endocrinology, 91, 562-572 (1972) and as more particularly described in Vale et al. Endocrinology, 112, 1553-1555 (1983). Incubation with the substance to be tested is carried out for 3 to 4 hours, and aliquots of the culture medium are removed and processed to measure their contents in immunoreactive GH(ir GH) by a well-characterized radioimmunoassay.

Square brackets hold non-standard residues; d marks the D form. Ends that are not written are not given here. Peptide text beside a SMILES is read from it. Nle = CCCC[C@H](N)C(=O)O

In turn, `CCCC[C@H](NC(=O)[C@@H](NC(=O)[C@H](CC(=O)O)NC(=O)[C@H](CCC(N)=O)NC(=O)[C@H](CC(C)C)NC(=O)[C@H](CC(C)C)NC(=O)[C@H](CCCCN)NC(=O)[C@H](CCCNC(=N)N)NC(=O)[C@H](C)NC(=O)[C@H](CO)NC(=O)[C@H](CC(C)C)NC(=O)[C@H](CCC(N)=O)NC(=O)CNC(=O)[C@H](CC(C)C)NC(=O)[C@@H](NC(=O)[C@H](CCCCN)NC(=O)[C@H](CCCNC(=N)N)NC(=O)[C@H](Cc1ccc(O)cc1)NC(=O)[C@H](CO)NC(=O)[C@H](CC(N)=O)NC(=O)[C@@H](NC(=O)[C@H](Cc1ccccc1)NC(=O)[C@@H](NC(=O)[C@H](C)NC(=O)[C@H](CC(=O)O)NC(=O)[C@@H](C)NC(=O)[C@@H](N)Cc1ccc(O)cc1)[C@@H](C)CC)[C@@H](C)O)C(C)C)[C@@H](C)CC)C(=O)N[C@@H](CC(N)=O)C(=O)N[C@@H](CCCNC(=N)N)C(=O)NCC` [[D-Ala^2, Nle^27, Asn^28]-hGRF(1-29)-NHEt] (H-Y[dA]DAIFTNSYRKVLGQLSARKLLQDI[Nle]NR-NHEt) came in with a Comparison % of 1714%.

The compound `CCCC[C@H](NC(=O)[C@@H](NC(=O)[C@H](CC(=O)O)NC(=O)[C@H](CCC(N)=O)NC(=O)[C@H](CC(C)C)NC(=O)[C@H](CC(C)C)NC(=O)[C@H](CCCCN)NC(=O)[C@H](CCCNC(=N)N)NC(=O)[C@H](C)NC(=O)[C@H](CO)NC(=O)[C@H](CC(C)C)NC(=O)[C@H](CCC(N)=O)NC(=O)CNC(=O)[C@H](CC(C)C)NC(=O)[C@@H](NC(=O)[C@H](CCCCN)NC(=O)[C@H](CCCNC(=N)N)NC(=O)[C@H](Cc1ccc(O)cc1)NC(=O)[C@H](CO)NC(=O)[C@H](CC(N)=O)NC(=O)[C@@H](NC(=O)[C@H](Cc1ccccc1)NC(=O)[C@@H](NC(=O)[C@H](C)NC(=O)[C@H](CC(=O)O)NC(=O)[C@@H](C)NC(=O)[C@@H](N)Cc1ccc(O)cc1)[C@@H](C)CC)[C@@H](C)O)C(C)C)[C@@H](C)CC)C(=O)N[C@@H](CO)C(=O)N[C@@H](CCCNC(=N)N)C(N)=O` [[D-Ala^2, Nle^27]-hGRF(1-29)-NH2] returned a Comparison % of 429%.

The compound `CCCC[C@H](NC(=O)[C@@H](NC(=O)[C@H](CCC(=O)O)NC(=O)[C@H](Cc1c[nH]cn1)NC(=O)[C@H](CC(C)C)NC(=O)[C@H](CC(C)C)NC(=O)[C@H](CCCCN)NC(=O)[C@H](CCCNC(=N)N)NC(=O)[C@H](C)NC(=O)[C@H](Cc1ccc(O)cc1)NC(=O)[C@H](CC(C)C)NC(=O)[C@H](CCC(N)=O)NC(=O)CNC(=O)[C@H](CC(C)C)NC(=O)[C@@H](NC(=O)[C@H](CCCNC(=N)N)NC(=O)[C@H](CCCNC(=N)N)NC(=O)[C@H](Cc1ccc(O)cc1)NC(=O)[C@H](CO)NC(=O)[C@H](CO)NC(=O)[C@@H](NC(=O)[C@H](Cc1ccccc1)NC(=O)[C@@H](NC(=O)[C@H](C)NC(=O)[C@H](CC(=O)O)NC(=O)[C@H](C)NC(=O)[C@@H](N)Cc1c[nH]cn1)[C@@H](C)CC)[C@@H](C)O)[C@@H](C)CC)[C@@H](C)CC)C(=O)N[C@H](CC(N)=O)C(=O)N[C@@H](CCCNC(=N)N)C(N)=O` [[Nle^27, D-Asn^28]-rGRF(1-29)-NH2] (H-HADAIFTSSYRRILGQLYARKLLHEI[Nle][dN]R-NH2) returned a Comparison % of 321%.

As to `CCCC[C@H](NC(=O)[C@@H](NC(=O)[C@H](CC(=O)O)NC(=O)[C@H](CCC(N)=O)NC(=O)[C@H](CC(C)C)NC(=O)[C@H](CC(C)C)NC(=O)[C@H](CCCCN)NC(=O)[C@H](CCCNC(=N)N)NC(=O)[C@H](C)NC(=O)[C@H](CO)NC(=O)[C@H](CC(C)C)NC(=O)[C@H](CCC(N)=O)NC(=O)CNC(=O)[C@H](CC(C)C)NC(=O)[C@@H](NC(=O)[C@H](CCCCN)NC(=O)[C@H](CCCNC(=N)N)NC(=O)[C@H](Cc1ccc(O)cc1)NC(=O)[C@H](CO)NC(=O)[C@H](CC(N)=O)NC(=O)[C@@H](NC(=O)[C@H](Cc1ccccc1)NC(=O)[C@@H](NC(=O)[C@H](C)NC(=O)[C@H](CC(=O)O)NC(=O)[C@H](C)NC(=O)[C@@H](N)Cc1ccc(O)cc1)[C@@H](C)CC)[C@@H](C)O)C(C)C)[C@@H](C)CC)C(=O)N[C@@H](CO)C(=O)N[C@@H](CCCNC(=N)N)C(N)=O` [[Nle^27]-hGRF(1-29)-NH2], the Comparison % is 238%.

In the case of “hGRF(1-40)-OH (YADAIFTNSYRKVLGQLSARKLLQDIMSRQQGESNQERGA-OH; UniProt P01286 32-71, looked up, fragment) [synthetic human pancreatic (tumor) GH releasing factor (1-40) free acid, used as standard for this test, reference compound]”, the Comparison % was 100%.
